{"source": "patent US12344597B2", "about": "“Alkoxy-substituted pyridinyl derivatives as LPA1 receptor antagonists and their use in the treatment of fibrosis” (IDORSIA PHARMACEUTICALS LTD, priority 2018, dated 2025)", "data": [{"biological_target": "human LPA1 receptor (Homo sapiens (Human), UniProt Q92633)", "sequence (Q92633 whole entry, the tested form may be a part)": "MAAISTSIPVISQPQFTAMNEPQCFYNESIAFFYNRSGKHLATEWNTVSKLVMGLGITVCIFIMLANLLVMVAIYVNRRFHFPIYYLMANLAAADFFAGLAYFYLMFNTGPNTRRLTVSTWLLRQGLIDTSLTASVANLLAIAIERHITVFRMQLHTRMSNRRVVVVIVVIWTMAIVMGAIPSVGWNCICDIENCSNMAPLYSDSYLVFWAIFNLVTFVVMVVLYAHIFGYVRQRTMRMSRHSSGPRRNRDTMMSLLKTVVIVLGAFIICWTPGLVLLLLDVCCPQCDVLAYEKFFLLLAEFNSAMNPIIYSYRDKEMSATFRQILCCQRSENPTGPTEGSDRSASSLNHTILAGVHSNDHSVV", "assay": "Beta-arrestin recruitment assay to determine IC50 values for human LPAR1", "format": "cell-based", "settings": "antagonist mode, Tango EDG2-bla U2OS cells, LPA 18:1 500 nM final", "procedure,_shortened": "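Tango EDG2-bla U2OS cells: LPA-driven beta-arrestin/TEV protease recruitment releases Gal4-VP16, inducing beta-lactamase reporter read with live-cell substrate. Cells seeded 20 h at 37 °C beforehand. IC50 is antagonist concentration inhibiting 50% of maximal response.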", "units": {"IC50": "nM"}, "values": [{"smiles": "CCOC(=O)Cc1coc(CN2CC(C(=O)Nc3ccc(C)nc3OC(F)F)(c3ccccc3C(C)C)C2)n1", "note": "[Ex 11-58, ethyl 2-(2-((3-((2-(difluoromethoxy)-6-methylpyridin-3-yl)carbamoyl)-3-(2-isopropylphenyl)azetidin-1-yl)methyl)oxazol-4-yl)acetate]", "IC50": 68}, {"smiles": "COc1nc(C)ccc1NC(=O)C1(c2ccccc2C(C)C)CN(C(=O)CCC(=O)O)C1", "note": "[Ex 12-62, 4-(3-(2-isopropylphenyl)-3-((2-methoxy-6-methylpyridin-3-yl)carbamoyl)azetidin-1-yl)-4-oxobutanoic acid]", "IC50": 65}, {"smiles": "Cc1ccc(NC(=O)C2(c3ccccc3C(C)C)CN(S(=O)(=O)NCC(=O)O)C2)c(OC(F)F)n1", "note": "[Ex 15-2, ((3-((2-(difluoromethoxy)-6-methylpyridin-3-yl)carbamoyl)-3-(2-isopropylphenyl)azetidin-1-yl)sulfonyl)glycine]", "IC50": 7}, {"smiles": "Cc1ccc(NC(=O)C2(c3ccccc3C(C)C)CN(Cc3ccc(C(=O)O)o3)C2)c(OC(F)F)n1", "note": "[Ex 11-57, 5-((3-((2-(difluoromethoxy)-6-methylpyridin-3-yl)carbamoyl)-3-(2-isopropylphenyl)azetidin-1-yl)methyl)furan-2-carboxylic acid]", "IC50": 12}, {"smiles": "Cc1ccc(NC(=O)C2(c3ccccc3C3CCC3)CN(C(=O)CC(C)(C)C(=O)O)C2)c(OC(F)F)n1", "note": "[Ex 31-2, 4-(3-(2-cyclobutylphenyl)-3-((2-(difluoromethoxy)-6-methylpyridin-3-yl)carbamoyl)azetidin-1-yl)-2,2-dimethyl-4-oxobutanoic acid]", "IC50": 6}, {"smiles": "Cc1ccc(NC(=O)C2(c3ccccc3C(C)C)CN(CC3(CC(=O)O)CC3)C2)c(OC(F)F)n1", "note": "[Ex 11-68, 2-(1-((3-((2-(difluoromethoxy)-6-methylpyridin-3-yl)carbamoyl)-3-(2-isopropylphenyl)azetidin-1-yl)methyl)cyclopropyl)acetic acid]", "IC50": 23}, {"smiles": "Cc1ccc(NC(=O)C2(c3ccccc3C(C)C)CN(CC(C)(C)C(=O)O)C2)c(OC(F)F)n1", "note": "[Ex 11-25, 3-(3-((2-(difluoromethoxy)-6-methylpyridin-3-yl)carbamoyl)-3-(2-isopropylphenyl)azetidin-1-yl)-2,2-dimethylpropanoic acid]", "IC50": 20}, {"smiles": "Cc1ccc(NC(=O)C2(c3ccccc3C(C)C)CCN(C(=O)C[C@@H]3OC(C)(C)OC3=O)CC2)c(OC(F)F)n1", "note": "[Ex 12-36, (S)-N-(2-(difluoromethoxy)-6-methylpyridin-3-yl)-1-(2-(2,2-dimethyl-5-oxo-1,3-dioxolan-4-yl)acetyl)-4-(2-isopropylphenyl)piperidine-4-carboxamide]", "IC50": 21}, {"smiles": "Cc1cnc(NC(=O)C2(c3ccccc3C(C)C)CN(S(=O)(=O)CCC(=O)O)C2)c(OC(F)F)c1", "note": "[Ex 80-2, 3-((3-((3-(difluoromethoxy)-5-methylpyridin-2-yl)carbamoyl)-3-(2-isopropylphenyl)azetidin-1-yl)sulfonyl)propanoic acid]", "IC50": 110}, {"smiles": "Cc1ccc(NC(=O)C2(c3ccccc3C(C)C)CN(CCCC3(C(=O)O)CC3)C2)c(OC(F)F)n1", "note": "[Ex 11-71, 1-(3-(3-((2-(difluoromethoxy)-6-methylpyridin-3-yl)carbamoyl)-3-(2-isopropylphenyl)azetidin-1-yl)propyl)cyclopropane-1-carboxylic acid]", "IC50": 7}, {"smiles": "COC(=O)[C@@H](C)NC(=O)N1CC(C(=O)Nc2ccc(C)nc2OC(F)F)(c2ccccc2C(C)C)C1", "note": "[Ex 17-23, methyl (3-((2-(difluoromethoxy)-6-methylpyridin-3-yl)carbamoyl)-3-(2-isopropylphenyl)azetidine-1-carbonyl)-D-alaninate]", "IC50": 5}, {"smiles": "CC(C)c1ccccc1C1(C(=O)Nc2ncc(Cl)cc2OC(F)F)CNC1", "note": "[Ex 72, N-(5-chloro-3-(difluoromethoxy)pyridin-2-yl)-3-(2-isopropylphenyl)azetidine-3-carboxamide]", "IC50": 15}, {"smiles": "CNC(=O)C(C)(C)CCN1CC(C(=O)Nc2ccc(C)nc2OC(F)F)(c2ccccc2C(C)C)C1", "note": "[Ex 11-92, N-(2-(difluoromethoxy)-6-methylpyridin-3-yl)-1-(3,3-dimethyl-4-(methylamino)-4-oxobutyl)-3-(2-isopropylphenyl)azetidine-3-carboxamide]", "IC50": 44}, {"smiles": "COC(=O)C(C)(C)CN1CC(C(=O)Nc2ccc(C)nc2OC(F)F)(c2ccccc2C(C)C)C1", "note": "[Ex 11-24, methyl 3-(3-((2-(difluoromethoxy)-6-methylpyridin-3-yl)carbamoyl)-3-(2-isopropylphenyl)azetidin-1-yl)-2,2-dimethylpropanoate]", "IC50": 280}, {"smiles": "COC(=O)C1(c2ncc(N3CC(C(=O)Nc4ccc(C)nc4OC(F)F)(c4ccccc4C(C)C)C3)cn2)CC1", "note": "[Ex 18-16, methyl 1-(5-(3-((2-(difluoromethoxy)-6-methylpyridin-3-yl)carbamoyl)-3-(2-isopropylphenyl)azetidin-1-yl)pyrimidin-2-yl)cyclopropane-1-carboxylate]", "IC50": 2}, {"smiles": "Cc1ccc(NC(=O)C2(c3ccccc3C(C)C)CN(CC(C)(C)CO)C2)c(OC(F)F)n1", "note": "[Ex 11-17, N-(2-(difluoromethoxy)-6-methylpyridin-3-yl)-1-(3-hydroxy-2,2-dimethylpropyl)-3-(2-isopropylphenyl)azetidine-3-carboxamide]", "IC50": 48}, {"smiles": "COC(=O)C(C)(C)OC(=O)N1CC(C(=O)Nc2ccc(C)nc2OC(F)F)(c2ccccc2C(C)C)C1", "note": "[Ex 14-6, 1-methoxy-2-methyl-1-oxopropan-2-yl 3-((2-(difluoromethoxy)-6-methylpyridin-3-yl)carbamoyl)-3-(2-isopropylphenyl)azetidine-1-carboxylate]", "IC50": 143}, {"smiles": "COc1ccc(NC(=O)C2(c3ccccc3C(C)C)CN(S(N)(=O)=O)C2)c(OC)n1", "note": "[Ex 15-7, N-(2,6-dimethoxypyridin-3-yl)-3-(2-isopropylphenyl)-1-sulfamoylazetidine-3-carboxamide]", "IC50": 4}, {"smiles": "CCOc1ccc(NC(=O)C2(c3ccccc3C(C)C)CN(S(N)(=O)=O)C2)c(OC)n1", "note": "[Ex 15-8, N-(6-ethoxy-2-methoxypyridin-3-yl)-3-(2-isopropylphenyl)-1-sulfamoylazetidine-3-carboxamide]", "IC50": 4}, {"smiles": "Cc1ccc(NC(=O)C2(c3ccccc3C(C)C)CCN(S(=O)(=O)CCC(=O)O)CC2)c(OC(F)F)n1", "note": "[Ex 13-8, 3-((4-((2-(difluoromethoxy)-6-methylpyridin-3-yl)carbamoyl)-4-(2-isopropylphenyl)piperidin-1-yl)sulfonyl)propanoic acid]", "IC50": 7}, {"smiles": "COC(=O)c1cnc(N2CC(C(=O)Nc3ccc(C)nc3OC(F)F)(c3ccccc3C(C)C)C2)nc1", "note": "[Ex 18-4, methyl 2-(3-((2-(difluoromethoxy)-6-methylpyridin-3-yl)carbamoyl)-3-(2-isopropylphenyl)azetidin-1-yl)pyrimidine-5-carboxylate]", "IC50": 31}, {"smiles": "Cc1ccc(NC(=O)C2(c3ccccc3C(C)C)CN(S(N)(=O)=O)C2)c(OC(C)C)n1", "note": "[Ex 15-18, N-(2-isopropoxy-6-methylpyridin-3-yl)-3-(2-isopropylphenyl)-1-sulfamoylazetidine-3-carboxamide]", "IC50": 7}, {"smiles": "Cc1ccc(C(C)C)c(C2(C(=O)Nc3ccc(C)nc3OC(F)F)CN(C(=O)CC(C)(C)C(=O)O)C2)c1", "note": "[Ex 39-2, 4-(3-((2-(difluoromethoxy)-6-methylpyridin-3-yl)carbamoyl)-3-(2-isopropyl-5-methylphenyl)azetidin-1-yl)-2,2-dimethyl-4-oxobutanoic acid]", "IC50": 15}]}]}
